How the values were obtained:
[1] = test system: DU145 prostate cancer cells; parameters: method as in PMID 28431881; details: ref [30]; read-out: Antiproliferative activity against DU145 prostate cancer cells IC50; cited from earlier work
A498 renal cancer cells = test system: A498 renal cancer cells; parameters: method as in PMID 30721822, PMID 28431881; details: at 10 μM; ref [4], [30]; cited from earlier work
[2] = test system: MGC-803 gastric cancer cells; parameters: method as in PMID 28763643, PMID 24393539; details: ref [13], [31]; read-out: Antiproliferative activity against MGC-803 gastric cancer cells IC50; cited from earlier work
MCF7 breast cancer cells = test system: MCF7 breast cancer cells; parameters: method as in PMID 28763643, PMID 24393539; details: ref [13], [31]; read-out: Cytotoxic effect against MCF7 breast cancer cells IC50; cited from earlier work
[3] = test system: MDA-MB435s melanoma cells; parameters: method as in PMID 25470024; details: ref [32], [33]; read-out: Cytotoxic effect against MDA-MB435s melanoma cells IC50; cited from earlier work
[4] = test system: MDA-MB-231 breast cancer cells; parameters: method as in PMID 25470024; details: ref [32], [33]; read-out: Antiproliferative activity against MDA-MB-231 breast cancer cells IC50; cited from earlier work
[5] = Solubility in aqueous media; format: physicochemical
[6] = test system: Vero (African green monkey kidney) cells; experiment: MTT reduction assay, Vero normal cells; format: cell-based; details: Chlorocebus sabaeus, Vero, 72 h, read-out: Vero IC50
From the text: (§1) Fetal bovine serum (FBS), phosphate-buffered saline (PBS), RPMI-1640, and trypsin were obtained from Biosera (Ringmer, UK). Penicillin/streptomycin and MTT (3-(4,5-dimethylthiazol-2-yl)-2,5-diphenyltetrazolium bromide) were from Sigma-Aldrich (Saint Louis, MO, USA) and Invitrogen (San Diego, CA, USA), respectively. Dimethyl sulfoxide and doxorubicin were purchased from Merck (Darmstadt, Germany) and EBEWE Pharma (Unterach, Austria), respectively. The cells were acquired from Iranian Biological Resource Center, Tehran, Iran (HT-29 (human colorectal adenocarcinoma), MCF-7 (human breast adenocarcinoma) and Vero (African green monkey kidney) cells) or National Cell Bank of Iran, Pasteur Institute, Tehran, Iran (MOLT-4 (lymphoblastic leukemia) cells).
(§2) MTT reduction assay was employed to assess the viability of cancer cells after being treated with synthesized derivatives as previously described ([34]). The cells were plated in flat-bottom 96-well microplates, at densities of 3 × 10^4 cells/mL (100 μL in each well) and then incubated overnight at 37 °C. Three to four different concentrations of synthesized derivatives (in the range of 1 to 100 μM) were placed in triplicate wells and the plates were incubated for 72 h at 37 °C. […] At the end of the incubation time, 80 μL of the media in each well was replaced with the same amount of growth medium without phenol red containing 0.5 mg/mL of MTT. Cells were further incubated at 37 °C for 4 h and then 80 μL of the solution of each well was removed. The addition of DMSO (200μL) to each well solubilized the formazan crystals formed inside the viable cells after 1-hour incubation followed by 30-minute shaking. The optical absorbance of the final solution was determined at 570 nm using a Bio-Tek multimode plate reader (Synergy HTX). The cell viability was calculated compared to untreated control cells by comparison of absorbance measurements. CurveExpert software (version 1.34 for Windows) was used to determine the IC50 value for each compound. To confirm the results, every experiment was repeated 3 to 5 times.

MCF-7 cells [7] = experiment: Cell cycle analysis, propidium iodide/RNase flow cytometric assay; format: cell-based, human; details: 48 h
Method: Alterations of the cell cycle were determined by the propidium iodide (PI)-RNase flow cytometric method ([35]). MCF-7 cells were used to determine the percentage of cells in each phase of the cell cycle. In 6-well plates, 2 × 10^5 cells were seeded in each well and incubated at 37 °C for 48 h. Afterward, they were treated for 48 h with derivatives 9g, 9j, 9k and 9l at 10 and 25 μM. The cells were then collected after trypsinization, washed twice with PBS, and fixed by 5 mL ethanol 70% for at least 24 h at -20 °C. After fixation, MCF-7 cells were washed with PBS two times and stained with PI 20 µg/mL and RNase 200 µg/mL for 30 min in the dark at room temperature. A FACS Calibur ﬂow cytometer (BD Biosciences) was used for the assays and 20,000 events were analyzed. The number of cells distributed in sub-G1, G0/G1, S, and G2/M were determined by CellQuest software (BD, USA).
Figure 2 Representative cell cycle histograms of MCF-7 cells treated with synthesized derivatives. Analysis of the percentage of cells in different phases of cell cycle was performed using propidium iodide (PI)-RNase flow cytometric assay. MCF-7 cells were seeded in 6-well microplates and treated with synthesized derivatives for 48 h. The cells were then collected and fixed in 70% ethanol overnight at -20 °C. In the end, the cells were stained with DNA staining solution (PI 20 µg/mL and RNase 200 µg/mL) for 30 min and 20,000 events were analyzed by a FACS Calibur ﬂow cytometer (BD Biosciences). Representative histograms of cells treated with compounds 9g, 9j, 9k and 9l are shown

[8] = test system: MCF-7 (human breast adenocarcinoma) cells; experiment: MTT reduction assay, antiproliferative effect, MCF-7; format: cell-based; details: Homo sapiens, MCF7, 72 h, read-out: MCF-7 IC50, MTT, 72 h incubation
From the text: as §1, §2

[9] = test system: HT-29 (human colorectal adenocarcinoma) cells; experiment: MTT reduction assay, antiproliferative effect, HT-29; format: cell-based; details: Homo sapiens, HT-29, 72 h, read-out: HT-29 IC50
From the text: as §1, §2

MCF-7 cells [10] = experiment: Hoechst 33258 staining, detection of apoptosis; format: cell-based, human; details: MCF-7, 72 h treatment, especially at 25 µM
Method: Hoechst 33258 was used as a DNA stain to detect apoptosis in cells. MCF-7 cells were seeded in a 6-well plate at a density of 5 × 10^4 cells/mL (2 mL per well) and incubated for 24 h. The whole medium was removed and different concentrations of test compounds 9g, 9j, 9k, and 9l diluted in 2 mL medium were placed in the different wells and incubated for 72 h. Afterward, the medium was removed again, 1 mL of 4% cold freshly prepared paraformaldehyde (PFA) was added, and cells were incubated for 20 min at room temperature. The cells were then washed 2 times with 1 ml PBS and incubated with 1 mL Hoechst 33258 2.5 µg/mL for 30 min in the dark at room temperature ([36], [37]). In the end, the cells were washed with 1 mL PBS and imaged with a fluorescence microscope.
Figure 3 Detection of apoptosis in MCF-7 cells by Hoechst staining. Hoechst 33258 was used as a DNA stain to detect apoptosis in MCF-7 cells treated with synthesized compounds. The cells were seeded in a 6-well plates and treated with different concentrations of test compounds 9g, 9j, 9k and 9l for 72 h. After removing the whole medium, 4% cold freshly prepared paraformaldehyde (PFA) was added for 20 min at room temperature, the cells were then washed twice with PBS, and incubated with Hoechst 33258 2.5 µg/mL for 30 min at room temperature in the dark. Finally, the cells were washed with PBS again and the plates were imaged with a fluorescence microscope

[11] = test system: MOLT-4 (lymphoblastic leukemia) cells; experiment: MTT reduction assay, antiproliferative effect, MOLT-4; format: cell-based, human; details: Homo sapiens, MOLT-4, 72 h, read-out: MOLT-4 IC50
From the text: as §1, §2

Structure (SMILES): O=C1C(=O)c2ccccc2-c2ccccc21 [Compound 1]
- IC50 [1]: 1.5 µM

Structure (SMILES): O=C1NC(=O)/C(=C/c2ccc(-c3nc4c5ccccc5c5ccccc5c4[nH]3)cc2)S1 [Compound 2]
- Growth inhibition in A498 renal cancer cells (A498 renal cancer cells): 93%

Structure (SMILES): Sc1nnc2c3ccccc3c3ccccc3c2n1 [Compound 3]
- melting point: 122 to 124 °C
- IC50 [2]: 7.6 µM

Structure (SMILES): O=[N+]([O-])c1cccc(/C=N/Nc2nnc3c(n2)-c2cccc4cccc-3c24)c1 [Compound 4]
- IC50 (MCF7 breast cancer cells): 61.9 µM

Structure (SMILES): CSc1nnc2c3ccccc3c3ccccc3c2n1 [Compound 5]
- IC50 [3]: 120 µM

Structure (SMILES): Cc1csc(N/N=C/c2ccccc2)n1 [Compound 6]
- IC50 [4]: 3.9 µM

Structure (SMILES): COc1ccc(C=NNc2nnc3c4ccccc4c4ccccc4c3n2)cc1 [Compound 9c, 3-(2-(4-methoxybenzylidene)hydrazinyl)phenanthro[9,10-e][1,2,4]triazine]
- melting point: 288 to 292 °C
- Solubility in aqueous media [5]: very low solubility in aqueous media

Structure (SMILES): Oc1ccccc1C=NNc1nnc2c3ccccc3c3ccccc3c2n1 [Compound 9d, 2-((2-(phenanthro[9,10-e][1,2,4]triazin-3-yl)hydrazono)methyl)phenol]
- melting point: 328 to 332 °C
- Solubility in aqueous media [5]: very low solubility in aqueous media

Structure (SMILES): C(=NNc1nnc2c3ccccc3c3ccccc3c2n1)c1cccs1 [Compound 9l, 3-(2-(thiophene-2-ylmethylene)hydraz-inyl)phenanthro[9,10-e][1,2,4]triazine]
- melting point: 228 to 231 °C
- IC50 [6]: 6.2 ± 3.1 µM
- Percentage of cells in G0/G1 (MCF-7 cells [7]; MCF-7, 10 µM): 73.76 ± 0.6
- Percentage of cells in G2/M (MCF-7 cells [7]; MCF-7, 10 µM): 18.50 ± 1.7
- Percentage of cells in S (MCF-7 cells [7]; MCF-7, 10 µM): 6.28 ± 1.0
- Percentage of cells in Sub G1 (MCF-7 cells [7]; MCF-7, 10 µM): 1.32 ± 0.3
- Effect on cells in sub-G1 phase (MCF-7 cells [7]; MCF-7, 25 µM): increased the cells in the sub-G1 phase
- Percentage of cells in G0/G1 (MCF-7 cells [7]; MCF-7, 25 µM): 72.07 ± 0.9
- Percentage of cells in G2/M (MCF-7 cells [7]; MCF-7, 25 µM): 19.43 ± 0.8
- Percentage of cells in S (MCF-7 cells [7]; MCF-7, 25 µM): 6.75 ± 0.9
- Percentage of cells in Sub G1 (MCF-7 cells [7]; MCF-7, 25 µM): 1.56 ± 0.3
- Effect on number of cells in G0/G1 (MCF-7 cells [7]; MCF-7, 10 and 25 µM): significantly enhanced the number of cells in the G0/G1
- IC50 [8]: 6.9 ± 0.9 µM
- IC50 [9]: 12.9 ± 3.5 µM
- Apoptosis induction by Hoechst 33258 staining (MCF-7 cells [10]): showed signs of apoptosis
- IC50 [11]: 6.8 ± 0.7 µM

Source: article PMC8653689, “Phenanthrotriazine Derivatives Containing Arylidine Hydrazone Moieties as Novel Potential c-Met Inhibitors with Anticancer Effect” (Iranian Journal of Pharmaceutical Research : IJPR, 2021)
